Measurements reported in patent US20170216251A1, “USE OF (+)-1-(3,4-DICHLOROPHENYL)-3-AZABICYCLO[3.1.0]HEXANE TO TREAT ADDICTIVE AND ALCOHOL-RELATED DISORDERS” (priority 2011, published 2017).
“Also recorded” adds a separate entry of the source.

Legend:
[1] = system: high-alcohol preferring (HAP) mouse; assay: binge operant responding experiment in high-alcohol preferring (HAP) mice; format: in vivo; details: intraperitoneal 25, 50 or 75 mg/kg, FIG. 2
Description: The efficacy of (+)-1-(3,4-dichlorophenyl)-3-azabicyclo[3.1.0]hexane to reduce alcohol-drinking behavior was evaluated in the genetically selected high-alcohol preferring (HAP) mouse, an animal model for human alcohol abuse. The effects of (+)-1-(3,4-dichlorophenyl)-3-azabicyclo[3.1.0]hexane on HAP mice were examined in a binge operant responding experiment, using standard protocols.
HAP mice were obtained from the Alcohol Research Center at Indiana University School of Medicine. Animals were housed individually at an ambient temperature of 21° C., with a normal 12 hour light/dark cycle. […]
Behavioral testing was conducted in standard operant chambers (Coulbourn Instruments, Allentown, Pa.) equipped with two removable levers and two dipper fluid delivery systems enclosed in sound-attenuated cubicles as previously described (Cook et al., 2004). […] Responses and reinforcements were recorded and controlled using the 4.0 Coulbourn L2T2 operant software package. […]
For the alcohol and sucrose maintained responding studies, (+)-1-(3,4-dichlorophenyl)-3-azabicyclo[3.1.0]hexane [25, 50, or 75 mg/kg] was injected into each HAP mouse, followed by immediate placement in an operant chamber. […] Six HAP mice were evaluated with each concentration of (+)-1-(3,4-dichlorophenyl)-3-azabicyclo[3.1.0]hexane [25, 50, or 75 mg/kg].

[2] = system: alcohol-preferring (P) rat; assay: binge operant responding experiment in alcohol-preferring (P) rats; format: in vivo
Description: P rats were obtained from the Alcohol Research Center at Indiana University School of Medicine. Male P rats were used in all experiments, and were approximately 4-5 months of age and weighed between 420 and 580 g at the outset. Animals were housed individually at an ambient temperature of 21° C., with a normal 12 hour light/dark cycle. All rats were provided ad libitum access to food and water, except during training for operant self-administration studies, during which rats were fluid deprived 23 hr daily during the first 5 days of the training phase. Thereafter, these animals were maintained on ad libitum food and water. All training and experimental sessions for all subjects took place between 9 a.m. and 5 p.m. […] Deionized water was administered as the control injection. Behavioral testing was conducted in standard operant chambers (Coulbourn Instruments, Allentown, Pa.) equipped with two removable levers and two dipper fluid delivery systems enclosed in sound-attenuated cubicles as previously described (Cook et al., 2004). All dipper presentations provided a 1.5-sec access to a 0.1-ml dipper, followed by a 3-sec time out period. […] Responses and reinforcements were recorded and controlled using the 4.0 Coulbourn […] operant software package. […]

[3] = system: Parkinson's Disease; details: Phase II clinical trial; Rascol et al., 2008; cited from earlier work
[4] = trial for use in weight loss; Astrup et al., 2008; cited from earlier work
[5] = patients with a preexisting cardiovascular condition, FDA News Release 2010, James et al.; cited from earlier work
[6] = molecular target: T1, serotonin transporter (Homo sapiens, UniProt P31645); details: PET occupancy study at the doses examined; DeLorenzo et al., 2011; cited from earlier work
T1 construct: host or cells: in vivo brain (PET)

[7] = Phase II, compared to placebo; Sepracor Press Release 2009; cited from earlier work
[8] = system: kidney tubules; details: cynomolgus monkeys; Guha et al., 2011; cited from earlier work

T1 sequence (P31645 whole entry): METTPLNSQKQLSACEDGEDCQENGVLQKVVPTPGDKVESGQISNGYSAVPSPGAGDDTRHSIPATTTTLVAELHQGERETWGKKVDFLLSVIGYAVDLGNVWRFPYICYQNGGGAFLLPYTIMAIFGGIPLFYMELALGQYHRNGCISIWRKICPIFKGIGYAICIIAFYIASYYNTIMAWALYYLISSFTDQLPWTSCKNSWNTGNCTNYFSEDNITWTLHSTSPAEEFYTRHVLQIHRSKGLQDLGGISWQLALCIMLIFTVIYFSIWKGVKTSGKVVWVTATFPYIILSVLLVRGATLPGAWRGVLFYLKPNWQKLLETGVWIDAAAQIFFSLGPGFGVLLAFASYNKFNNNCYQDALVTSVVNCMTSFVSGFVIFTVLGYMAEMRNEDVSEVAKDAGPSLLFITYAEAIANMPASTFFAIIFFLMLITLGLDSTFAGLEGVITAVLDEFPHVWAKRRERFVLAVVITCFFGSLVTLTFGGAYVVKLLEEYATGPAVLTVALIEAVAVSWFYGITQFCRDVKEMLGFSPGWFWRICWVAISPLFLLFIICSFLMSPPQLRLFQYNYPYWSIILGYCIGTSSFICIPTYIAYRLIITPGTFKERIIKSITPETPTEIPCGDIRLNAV

SMILES: Clc1ccc([C@]23CNC[C@H]2C3)cc1Cl [(+)-1-(3,4-dichlorophenyl)-3-azabicyclo[3.1.0]hexane]
- effect on sucrose consumption (control sucrose responding) ([1]; HAP mice maintained on sucrose water): lack of effect
- effect on alcohol consumption (ethanol responding) ([1]; HAP mice, 90 min operant session, EtOH 10% v/v, FR4): demonstrates a dose response; also recorded: dose-dependent decrease in alcohol consumption
- effect on sucrose consumption (sucrose maintained responding) ([2]; P rats maintained on sucrose water, oral 3.1-50 mg/kg, 90 min operant session, FIG. 1B): lack of effect
- effect on ethanol consumption (alcohol maintained responding) ([2]; P rats, oral 3.1, 6.3, 12.5, 25 or 50 mg/kg 25 min before 90 min operant session, EtOH 10% v/v, FR4, FIG. 1A): demonstrates a dose response; also recorded: decrease in alcohol consumption that was dose-dependent

SMILES: CCOC[C@@H]1[C@@H](c2ccc(Cl)c(Cl)c2)C[C@@H]2CC[C@H]1N2C [Tensofensine]
- efficacy in treatment of Parkinson's Disease [3]: not be efficacious
- adverse events [4]: gastrointestinal adverse events (dry mouth, nausea, abdominal pain, constipation, diarrhea)

SMILES: CC(C)CC(N(C)C)C1(c2ccc(Cl)cc2)CCC1 (stereo not shown) [sibutramine]
- risk of serious heart events (non-fatal heart attack, non-fatal stroke) [5]: significant increase in the risk of serious heart events

SMILES: N[C@@H]1CC[C@@H](c2ccc(Cl)c(Cl)c2)c2ccccc21 [SEP-225289]
- serotonin transporter occupancy [6]: too low at the doses examined to produce an antidepressant effect
- primary efficacy endpoint as antidepressant [7]: did not meet the primary efficacy endpoint compared to placebo

SMILES: CNC[C@H](c1ccc2ccccc2c1)[C@H](O)c1ccccc1 [PRC200-SS]
- nephrotoxicity [8]: acute degenerative damage of kidney tubules
